Molecules are shown by their SMILES. Structures can show the parent of a compound that is named as a salt.

The target of this assay is T1, 5-HT3 (Homo sapiens, UniProt P46098).
T1 sequence (P46098 24-478): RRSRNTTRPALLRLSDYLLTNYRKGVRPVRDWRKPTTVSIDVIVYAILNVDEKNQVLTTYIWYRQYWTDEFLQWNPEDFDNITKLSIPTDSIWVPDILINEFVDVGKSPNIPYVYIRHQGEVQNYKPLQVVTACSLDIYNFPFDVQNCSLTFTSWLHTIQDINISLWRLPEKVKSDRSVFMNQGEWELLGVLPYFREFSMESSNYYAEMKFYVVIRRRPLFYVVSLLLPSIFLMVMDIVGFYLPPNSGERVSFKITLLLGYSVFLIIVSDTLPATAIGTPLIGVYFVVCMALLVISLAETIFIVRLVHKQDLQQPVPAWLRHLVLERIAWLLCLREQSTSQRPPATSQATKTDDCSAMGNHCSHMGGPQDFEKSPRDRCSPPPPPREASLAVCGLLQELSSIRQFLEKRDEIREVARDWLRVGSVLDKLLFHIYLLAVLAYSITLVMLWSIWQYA
In words: Compound affinity for the human 5-HT3 receptor (Assay B), SPA radioligand binding with [9-methyl-3H]BRL-43694. Also on record: purchased Perkin Elmer. The conditions noted are these: Assay B (method B unless otherwise annotated); read-out: 5-HT3 Ki. The procedure:
Compound Affinity for the human 5-HT3 Receptor (Assay B)
The relative affinity of the various compounds for the human 5-HT3 receptor was measured in a radioligand binding assay, using a scintillation proximity assay (SPA) format. Test compounds were dissolved to 10 mM in 100% DMSO, then serially diluted at 10× assay concentrations in 100% DMSO in 96-well polypropylene plates and further diluted to 4× assay concentrations with the assay buffer. […] Binding reactions were set up in wells of PicoPlates-96 (Perkin Elmer) by adding consecutively 50 μL of each competing compound or buffer, SPA beads, the radioligand and 5-HT3 receptor membranes. After 60-min incubation at room temperature on a Nutator mixer, plates were centrifuged for 15 min at 1,500 rpm, followed by incubation in the dark for 30 min. Radioactivity was counted in the TopCount microplate counter (Perkin Elmer) for 5 min. […] Specific binding was determined by subtracting nonspecific binding from total binding. All experiments were performed in duplicate using ten concentrations of a competing ligand, with ondansetron included as a control in every run. IC50 values were determined from specific binding data using XLfit4.1 curve fitting software from IDBS Ltd. Ki values were then calculated from the Cheng-Prusoff equation.
The Ki is the equilibrium dissociation constant of an inhibitor or competing ligand from its target. As to `C[C@H]1COC[C@H](C)N1c1nc2c(C(=O)NC3CC4COCC(C3)N4C)cccc2o1` (stereo partly drawn) [Example 88, Endo-N-(9-Methyl-3-oxa-9-azabicyclo[3.3.1]nonan-7-yl) 2-((3 S,5S)-3,5-dimethylmorpholino)benzoxazole-4-carboxamide Hydrochloride], the Ki was 19.9 nM. To `CC[C@@H]1COCCN1c1nc2c(C(=O)NC3CC4CCCC(C3)N4C)cccc2o1` (stereo partly drawn) [Example 151, Endo-N-(9-Methyl-9-azabicyclo[3.3.1]nonan-3-yl)-2-((R)-3-ethylmorpholino)-benzoxazole-4-carboxamide Hydrochloride] belongs 34 nM; to `CN1[C@@H]2CCC[C@H]1C[C@@H](NC(=O)c1cccc3oc(N4CCCCC4)nc13)C2` [Example 3, Endo-N-(9-Methyl-9-azabicyclo[3.3.1]non-3-yl)-2-(piperidin-1-yl)benzoxazole-4-carboxamide Hydrochloride], 10.4 nM. Next, `C[C@H]1COC[C@H](C)N1c1nc2c(C(=O)NC3CC4CCC(C3)N4C)cccc2o1` (stereo partly drawn) [Example 101, N-(8-Methyl-8-azabicyclo[3.2.1]octan-3-yl)-2-(3S,5S)-3,5-dimethylmorpholinobenzoxazole-4-carboxamide Hydrochloride]: 2.6 nM; `CC(C)[C@H]1COCCN1c1nc2c(C(=O)NC3CC4CCCC(C3)N4C)cccc2o1` (stereo partly drawn) [Example 48, Endo-N-(9-Methyl-9-azabicyclo[3.3.1]nonan-3-yl)-2-((S)-3-isopropylmorpholino)benzoxazole-4-carboxamide Hydrochloride]: 6 nM; `CN1[C@@H]2CCC[C@H]1C[C@@H](NC(=O)c1cccc3oc(N4CCNC(=O)C4)nc13)C2` [Example 86, Endo-N-(9-Methyl-9-azabicyclo[3.3.1]nonan-3-yl)-2-(3-oxopiperazine-1-yl)benzoxazole-4-carboxamide Hydrochloride]: 66.2 nM. Next, `C[C@H]1CN(C(=O)C2CCCCC2)C[C@H](C)N1c1nc2c(C(=O)NC3CC4CCCC(C3)N4C)cccc2o1` (stereo partly drawn) [Example 132, Endo-N-(9-methyl-9-azabicyclo[3.3.1]nonan-3-yl)-2-((2S,6S)-4-(cyclohexanecarbonyl)-2,6-dimethylpiperazin-1-yl)benzoxazole-4-carboxamide Hydrochloride]: 1.9 nM; `CN1[C@@H]2CCC[C@H]1C[C@@H](NC(=O)c1cccc3oc(NC4CNC4)nc13)C2` [Example 16, Endo-N-(9-Methyl-9-azabicyclo[3.3.1]non-3-yl)-2-(azetidin-3-ylamino)benzoxazole-4-carboxamide Dihydrochloride]: 179 nM. With `C[C@H]1CN(C)C(=O)[C@H](C)N1c1nc2c(C(=O)NC3CC4CCCC(C3)N4C)cccc2o1` (stereo partly drawn) [Example 120, Endo-N-(9-methyl-9-azabicyclo[3.3.1]nonan-3-yl)-2-((2S,6S)-2,4,6-trimethyl-3-oxopiperazine-1-yl)benzoxazole-4-carboxamide Hydrochloride], the Ki was determined as 1.9 nM. For `C[C@H]1CNC[C@H](C)N1c1nc2c(C(=O)NC3CC4CCCC(C3)N4C)cccc2o1` (stereo partly drawn) [Example 73, Endo-N-(9-Methyl-9-azabicyclo[3.3.1]nonan-3-yl)-2-((2S,6S)-2,6-dimethylpiperazin-1-yl)benzoxazole-4-carboxamide Hydrochloride], the Ki turned out to be 2.2 nM.

Regarding `CCOC(=O)N1C[C@H](C)N(c2nc3c(C(=O)NC4CC5CCCC(C4)N5C)cccc3o2)[C@@H](C)C1` (stereo partly drawn) [Example 144, Endo-N-(9-methyl-9-azabicyclo[3.3.1]nonan-3-yl)-2-((2S,6S)-4-(ethoxycarbonyl)-2,6-dimethylpiperazin-1-yl)benzoxazole-4-carboxamide Hydrochloride], the Ki was 1 nM. Next, `COc1ccc(Nc2nc3c(C(=O)N[C@H]4C[C@H]5CCC[C@@H](C4)N5C)cccc3o2)cc1` [Example 59, Endo-N-(9-methyl-9-azabicyclo[3.3.1]nonan-3-yl)-2-(4-methoxyphenylamino)benzoxazole-4-carboxamide Hydrochloride]: 7.6 nM. With `C[C@H]1CS(=O)(=O)C[C@H](C)N1c1nc2c(C(=O)NC3CC4CCCC(C3)N4C)cccc2o1` (stereo partly drawn) [Example 123, Endo-N-(9-methyl-9-azabicyclo[3.3.1]nonan-3-yl)-2-((3S,5S)/(3R,5R)-3,5-dimethylthiomorpholine 1,1-dioxide)benzoxazole-4-carboxamide Hydrochloride], the Ki came to 57 nM.

Consider `CN1[C@@H]2CCC[C@H]1C[C@@H](NC(=O)c1cccc3oc(NC4CCCCC4)nc13)C2` [Example 70, Endo-N-(9-Methyl-9-azabicyclo[3.3.1]nonan-3-yl)-2-(cyclohexylamino)benzoxazole-4-carboxamide Hydrochloride], for which the Ki came to 19.2 nM. As for `C[C@H]1CN(C(=O)C2CCCC2)C[C@H](C)N1c1nc2c(C(=O)NC3CC4CCCC(C3)N4C)cccc2o1` (stereo partly drawn) [Example 133, Endo-N-(9-methyl-9-azabicyclo[3.3.1]nonan-3-yl)-2-((2S,6S-4-(cyclopentanecarbonyl)-2,6-dimethylpiperazin-1-yl)benzoxazole-4-carboxamide Hydrochloride], the Ki was 1.8 nM.

Regarding `CN1C2CCCC1CC(NC(=O)c1cccc3oc(N4CCOC[C@@H]4CO)nc13)C2` (stereo partly drawn) [Example 94, Endo-N-(9-Methyl-9-azabicyclo[3.3.1]nonan-3-yl)-2-((S)-3-(hydroxymethyl)morpholino)benzoxazole-4-carboxamide Hydrochloride], the Ki came out at 27.5 nM.

With `C[C@H]1CN(C(=O)N2CCCCC2)C[C@H](C)N1c1nc2c(C(=O)NC3CC4CCCC(C3)N4C)cccc2o1` (stereo partly drawn) [Example 141, Endo-N-(9-methyl-9-azabicyclo[3.3.1]nonan-3-yl)-2-((2S,6S)-2,6-dimethyl-4-(piperidine-1-carbonyl)piperazin-1-yl)benzoxazole-4-carboxamide hydrochloride], the Ki was 1.8 nM. To `C[C@H]1CNC[C@H](C)N1c1nc2c(C(=O)NC3CC4CCCC(C3)N4C)ccc(F)c2o1` (stereo partly drawn) [Example 107, Endo-N-(9-Methyl-9-azabicyclo[3.3.1]nonan-3-yl)-2-((2S,6S)-2,6-dimethylpiperazine-1-yl)-7-fluorobenzoxazole-4-carboxamide hydrochloride] belongs 14.2 nM. To `C[C@H]1COCCN1c1nc2c(C(=O)NC3CC4CCCC(C3)N4C)cc(Cl)cc2o1` (stereo partly drawn) [Example 106, Endo-6-Chloro-N-(9-methyl-9-azabicyclo[3.3.1]nonan-3-yl)-2-((S)-3-methylmorpholino)benzoxazole-4-carboxamide Hydrochloride] belongs 12.6 nM; to `CCN(C)c1nc2c(C(=O)N[C@@H]3CN4CCC3CC4)cccc2o1` [Example 83, (S)—N-(quinuclidine-8-yl)-2-(ethyl(methyl)amino)benzoxazole-4-carboxamide Hydrochloride], 6.8 nM; to `CN(C)c1nc2c(C(=O)N[C@@H]3CN4CCC3CC4)cc(Cl)cc2o1` [Example 108, (S)—N-(quinuclidine-8-yl)-6-chloro-2-(dimethylamino)benzoxazole-4-carboxamide Hydrochloride], 14.4 nM. Next, `CNc1nc2c(C(=O)NC3CN4CCC3CC4)cccc2o1` [Example 113, (S)—N-(quinulidin-8-yl)-2-methylaminobenzoxazole-4-carboxamide Hydrochloride]: 14.5 nM. Take `C[C@@H]1CN(c2nc3c(C(=O)NC4CC5CCCC(C4)N5C)cccc3o2)C[C@H](C)O1` (stereo partly drawn) [Example 17, Endo-N-(9-Methyl-9-azabicyclo[3.3.1]non-3-yl)-2-[(2S,6R)-2,6-dimethylmorpholino]benzoxazole-4-carboxamide Hydrochloride]: the Ki was determined as 54.2 nM.

For `C[C@H]1CN(C(=O)N(C)C)C[C@H](C)N1c1nc2c(C(=O)NC3CC4CCCC(C3)N4C)cccc2o1` (stereo partly drawn) [Example 136, Endo-N-(9-methyl-9-azabicyclo[3.3.1]nonan-3-yl)-2-((2S,6S)-2,6-dimethyl-4-(dimethylcarbamoyl)piperazin-1-yl)benzoxazole-4-carboxamide Hydrochloride], the Ki is 2.6 nM. To `C[C@H]1CN(S(C)(=O)=O)C[C@H](C)N1c1nc2c(C(=O)NC3CC4CCCC(C3)N4C)cccc2o1` (stereo partly drawn) [Example 131, Endo-N-(9-methyl-9-azabicyclo[3.3.1]nonan-3-yl)-2-((2S,6S-2,6-dimethyl-4-(methylsulfonyl)piperazin-1-yl)benzoxazole-4-carboxamide Hydrochloride] belongs 1 nM; to `CN1[C@@H]2CCC[C@H]1C[C@@H](NC(=O)c1c(F)ccc3oc(N)nc13)C2` [Example 128, Endo-N-(9-Methyl-9-azabicyclo[3.3.1]nonan-3-yl)-2-amino-5-fluorobenzoxazole-4-carboxamide Hydrochloride], 124 nM.

The values above are taken from patent US7863271B2, “2-aminobenzoxazole carboxamides as 5HT3 modulators” (Albany Molecular Research, Inc., priority 2006, dated 2011).
